Reference: patent US20230044787A1, “TRICYCLE DIHYDROIMIDAZOPYRIMIDONE DERIVATIVE, PREPARATION METHOD THEREOF, PHARMACEUTICAL COMPOSITION AND USE THEREOF” (priority 2019, published 2023)

Target: T1, Lp-PLA2 (Homo sapiens, UniProt Q13093)
T1 construct: aliquoted and thawed 40 μL of pooled human plasma was previously added; from tissue; host or cells: pooled human plasma
T1 sequence (Q13093 22-441): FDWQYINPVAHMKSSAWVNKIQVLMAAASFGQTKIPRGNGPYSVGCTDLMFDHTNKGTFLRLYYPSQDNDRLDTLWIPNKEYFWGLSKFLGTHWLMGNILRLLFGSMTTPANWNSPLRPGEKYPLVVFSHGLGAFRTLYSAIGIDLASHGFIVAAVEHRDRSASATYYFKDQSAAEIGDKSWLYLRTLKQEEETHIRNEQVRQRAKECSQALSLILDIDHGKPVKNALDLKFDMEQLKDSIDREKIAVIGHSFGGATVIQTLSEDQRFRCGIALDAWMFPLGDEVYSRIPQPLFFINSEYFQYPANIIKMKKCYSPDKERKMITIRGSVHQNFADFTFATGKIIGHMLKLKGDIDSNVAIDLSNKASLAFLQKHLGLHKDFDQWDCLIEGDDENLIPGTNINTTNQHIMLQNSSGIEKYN
Experiment: Lipoprotein-associated phospholipase A2 (Lp-PLA2) human plasma assay (Thio-PAF assay)
Format: biochemical
Conditions: Lp-PLA2 human plasma assay (Thio-PAF), pooled human plasma, 30-min pre-incubation at room temperature

IC50 | Compound
4.4 nM | CC(C)(O)C12CN3c4cc(OCc5ccc(Oc6ccnc(C(F)(F)F)c6)c(F)c5)nc(=O)n4CC3(C1)C2 [Example 201, 3-((3-Fluoro-4-((2-trifluoromethylpyridin-4-yl)oxy)benzyl)oxy)-7-(2-hydroxypropyl-2-yl)-7,8-dihydro-1H,6H,9H-7,8a-methanopyrrolo[1′, 2′:3, 4]imidazo[1,2-c]pyrimidin-1-one]
1.9 nM | NC12CN3c4cc(OCc5ccc(Oc6ccnc(C(F)(F)F)c6)c(F)c5)nc(=O)n4CC3(C1)C2 [Example 202, 7-Amino-3-((3-fluoro-4-((2-(trifluoromethyl)pyridin-4-yl)oxy)benzyl)oxy)-7,8-dihydro-1H,6H,9H-7,8a-methanopyrrolo[1′,2′:3,4]imidazo[1,2-c]pyrimidin-1-one]
